Results as given in ChEMBL document CHEMBL1201862, “PubChem BioAssay data set” (2004).
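The compound was tested at five concentrations on cells cultured in 96-well plates, with a 48-hour exposure period. At the GI50, growth is halved.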 Calls of active or inactive are those of the source. Rule as the data show it: active = GI50 up to about 1.1 µM and inactive = higher.

Tests used:
Assay in all cases: NCI-60 cell line screen, 48 h
[1] = test system: NCI-H23
[2] = test system: NCI/ADR-RES
[3] = test system: RPMI-8226
[4] = test system: HCC 2998
[5] = test system: SK-MEL-28
[6] = test system: K562
[7] = test system: CAKI-1
[8] = test system: M14
[9] = test system: UACC-62
[10] = test system: SK-OV-3
[11] = test system: NCI-H522
[12] = test system: NCI-H226
[13] = test system: DU-145
[14] = test system: OVCAR-5
[15] = test system: UACC-257
[16] = test system: A498
[17] = test system: UO-31
[18] = test system: HCT-116
[19] = test system: Hs-578T
[20] = test system: OVCAR-3
[21] = test system: MCF7
[22] = test system: T47D
[23] = test system: HL-60
[24] = test system: OVCAR-8
[25] = test system: SK-MEL-5
[26] = test system: EKVX
[27] = test system: SW-620
[28] = test system: IGROV-1
[29] = test system: SNB-19
[30] = test system: OVCAR-4
[31] = test system: BT-549
[32] = test system: TK-10
[33] = test system: NCI-H460
[34] = test system: MDA-MB-231
[35] = test system: Malme-3M
[36] = test system: SF-268
[37] = test system: U-251
[38] = test system: KM12
[39] = test system: SN12C
[40] = test system: HOP-62
[41] = test system: RXF 393
[42] = test system: PC-3
[43] = test system: COLO 205
[44] = test system: LOX IMVI
[45] = test system: MOLT-4
[46] = test system: 786-0
[47] = test system: SF-295
[48] = test system: HT-29
[49] = test system: SNB-75
[50] = test system: MDA-MB-435
[51] = test system: CCRF-CEM
[52] = test system: ACHN
[53] = test system: HCT-15
[54] = test system: A549
[55] = test system: SK-MEL-2
[56] = test system: SR
[57] = test system: HOP-92
[58] = test system: SF-539

COc1ccc(N2C(=O)C3c4[nH]c5ccc(C)cc5c4C4CCC(c5ccccc5)CC4C3C2=O)cc1 (stereo unspecified)
GI50 [1]: 33.7 µM (inactive) | GI50 [2]: > 100 µM (inactive) | GI50 [3]: > 82.8 µM (inactive) | GI50 [4]: > 100 µM (inactive) | GI50 [5]: > 100 µM (inactive) | GI50 [6]: 25.8 µM (inactive) | GI50 [7]: > 33.1 µM (inactive) | GI50 [8]: 47.1 µM (inactive) | GI50 [9]: 22.6 µM (inactive) | GI50 [10]: 18.9 µM (inactive) | GI50 [11]: > 100 µM (inactive) | GI50 [12]: > 100 µM (inactive) | GI50 [13]: > 100 µM (inactive) | GI50 [14]: > 100 µM (inactive) | GI50 [15]: > 100 µM (inactive) | GI50 [16]: 22.9 µM (inactive) | GI50 [17]: > 89.5 µM (inactive) | GI50 [18]: > 57.7 µM (inactive) | GI50 [19]: 6.84 µM (inactive) | GI50 [20]: > 100 µM (inactive) | GI50 [21]: > 83.6 µM (inactive) | GI50 [22]: > 100 µM (inactive) | GI50 [23]: 12.8 µM (inactive) | GI50 [24]: 22.5 µM (inactive) | GI50 [25]: > 100 µM (inactive) | GI50 [26]: > 64.3 µM (inactive) | GI50 [27]: > 100 µM (inactive) | GI50 [28]: > 51.3 µM (inactive) | GI50 [29]: 14.3 µM (inactive) | GI50 [30]: > 32.5 µM (inactive) | GI50 [31]: 42.3 µM (inactive) | GI50 [32]: 28.6 µM (inactive) | GI50 [33]: 39 µM (inactive) | GI50 [34]: 8.41 µM (inactive) | GI50 [35]: > 100 µM (inactive) | GI50 [36]: 11.8 µM (inactive) | GI50 [37]: 12.9 µM (inactive) | GI50 [38]: > 100 µM (inactive) | GI50 [39]: > 100 µM (inactive) | GI50 [40]: 7.05 µM (inactive) | GI50 [41]: 12.6 µM (inactive) | GI50 [42]: > 100 µM (inactive) | GI50 [43]: > 100 µM (inactive) | GI50 [44]: > 57.3 µM (inactive) | GI50 [45]: 41.2 µM (inactive) | GI50 [46]: 9.64 µM (inactive) | GI50 [47]: 20.6 µM (inactive) | GI50 [48]: > 100 µM (inactive) | GI50 [49]: 4.02 µM (inactive) | GI50 [50]: > 100 µM (inactive) | GI50 [51]: 4.9 µM (inactive) | GI50 [52]: 32.6 µM (inactive) | GI50 [53]: > 75.9 µM | GI50 [54]: > 89.1 µM (inactive) | GI50 [55]: 28.5 µM (inactive) | GI50 [56]: 5.41 µM (inactive) | GI50 [57]: 14.6 µM (inactive)

N=C(N)N/N=C/c1c(-c2cccc([N+](=O)[O-])c2)nc2n1CCS2
GI50 [1]: 25.5 µM (inactive) | GI50 [2]: 77.6 µM (inactive) | GI50 [3]: 34.9 µM (inactive) | GI50 [4]: 19.4 µM (inactive) | GI50 [5]: 19.8 µM (inactive) | GI50 [6]: 11.2 µM (inactive) | GI50 [7]: 31.7 µM (inactive) | GI50 [8]: 24.4 µM (inactive) | GI50 [9]: 17.9 µM (inactive) | GI50 [11]: 16.3 µM (inactive) | GI50 [12]: 20.3 µM (inactive) | GI50 [13]: 19 µM (inactive) | GI50 [14]: 35 µM (inactive) | GI50 [15]: 19.1 µM (inactive) | GI50 [16]: 17 µM (inactive) | GI50 [17]: 15.5 µM (inactive) | GI50 [18]: 20.5 µM (inactive) | GI50 [19]: 7.1 µM (inactive) | GI50 [20]: 30.3 µM (inactive) | GI50 [21]: 11 µM (inactive) | GI50 [22]: 8.02 µM (inactive) | GI50 [23]: 19.1 µM (inactive) | GI50 [24]: 16.7 µM (inactive) | GI50 [25]: 14.8 µM (inactive) | GI50 [26]: 25.4 µM (inactive) | GI50 [58]: 20 µM (inactive) | GI50 [27]: 5.45 µM (inactive) | GI50 [28]: 15.6 µM (inactive) | GI50 [29]: 13.8 µM (inactive) | GI50 [30]: 13.9 µM (inactive) | GI50 [31]: 15.9 µM (inactive) | GI50 [32]: 23.4 µM (inactive) | GI50 [33]: 22.8 µM (inactive) | GI50 [34]: 16.7 µM (inactive) | GI50 [35]: 18.9 µM (inactive) | GI50 [36]: 19.6 µM (inactive) | GI50 [37]: 14.9 µM (inactive) | GI50 [38]: 18.4 µM (inactive) | GI50 [39]: 22.7 µM (inactive) | GI50 [40]: 22.4 µM (inactive) | GI50 [41]: 19.3 µM (inactive) | GI50 [42]: 16.9 µM (inactive) | GI50 [43]: 8.32 µM (inactive) | GI50 [44]: 16.6 µM (inactive) | GI50 [45]: 11.4 µM (inactive) | GI50 [46]: 29.3 µM (inactive) | GI50 [47]: 26.2 µM (inactive) | GI50 [48]: 15.7 µM (inactive) | GI50 [49]: 9.68 µM (inactive) | GI50 [50]: 28.2 µM (inactive) | GI50 [51]: 22.2 µM (inactive) | GI50 [52]: 17.7 µM (inactive) | GI50 [53]: 33.1 µM | GI50 [54]: 18.5 µM (inactive) | GI50 [55]: 17.2 µM (inactive) | GI50 [56]: 12.7 µM (inactive) | GI50 [57]: 14.9 µM (inactive)

Cc1oncc1/N=C1\C=C(O)C(=O)c2ccccc21
GI50 [1]: 3.79 µM (inactive) | GI50 [2]: 3.85 µM (inactive) | GI50 [3]: 7.64 µM (inactive) | GI50 [4]: 16.8 µM (inactive) | GI50 [5]: 15.4 µM (inactive) | GI50 [6]: 6.14 µM (inactive) | GI50 [7]: 9.18 µM (inactive) | GI50 [8]: 6.1 µM (inactive) | GI50 [9]: 2.99 µM (inactive) | GI50 [10]: 15.7 µM (inactive) | GI50 [11]: 5.41 µM (inactive) | GI50 [12]: 19 µM (inactive) | GI50 [13]: 15 µM (inactive) | GI50 [14]: 13.5 µM (inactive) | GI50 [15]: 2.77 µM (inactive) | GI50 [16]: 13.2 µM (inactive) | GI50 [17]: 14.1 µM (inactive) | GI50 [18]: 3.16 µM (inactive) | GI50 [19]: 9.12 µM (inactive) | GI50 [20]: 1.9 µM (inactive) | GI50 [21]: 2.68 µM (inactive) | GI50 [22]: 3.3 µM (inactive) | GI50 [23]: 2.26 µM (inactive) | GI50 [24]: 2.53 µM (inactive) | GI50 [25]: 1.95 µM (inactive) | GI50 [26]: 14.6 µM (inactive) | GI50 [58]: 4.65 µM (inactive) | GI50 [27]: 4.4 µM (inactive) | GI50 [28]: 3.57 µM (inactive) | GI50 [29]: 16.3 µM (inactive) | GI50 [30]: 3.62 µM (inactive) | GI50 [31]: 12.4 µM (inactive) | GI50 [32]: 25.1 µM (inactive) | GI50 [33]: 3.91 µM (inactive) | GI50 [34]: 8.47 µM (inactive) | GI50 [35]: 3.45 µM (inactive) | GI50 [36]: 10.5 µM (inactive) | GI50 [37]: 5.37 µM (inactive) | GI50 [38]: 6.21 µM (inactive) | GI50 [39]: 5.73 µM (inactive) | GI50 [40]: 17.4 µM (inactive) | GI50 [41]: 13.2 µM (inactive) | GI50 [42]: 2.42 µM (inactive) | GI50 [43]: 17 µM (inactive) | GI50 [44]: 2.73 µM (inactive) | GI50 [45]: 2.5 µM (inactive) | GI50 [46]: 18.2 µM (inactive) | GI50 [47]: 7.66 µM (inactive) | GI50 [48]: 3.65 µM (inactive) | GI50 [49]: 13.1 µM (inactive) | GI50 [50]: 1.92 µM (inactive) | GI50 [51]: 3.38 µM (inactive) | GI50 [52]: 4.82 µM (inactive) | GI50 [53]: 3.72 µM | GI50 [54]: 3.9 µM (inactive) | GI50 [56]: 4.88 µM (inactive) | GI50 [57]: 10.4 µM (inactive)
